Values after ≈ are worked out from the molar mass of the structure shown. Like-named read-outs stand apart in the source and are kept apart here. Marks after values point to notes of the source that are not given here. Bounds are passed on as bounds.

The test system of data set [1] is P. falciparum (Pf) 3D7 parasites. The experiment in a line: P. falciparum LDH viability assay. Format: cell-based. To be noted: Plasmodium falciparum, 3D7, 72 h, LDH activity at 72 h; mean and SD of 3 independent experiments. The text has this:
This assay is a platform assay conducted at the Walter and Eliza Hall Institute and uses a protocol previously decsribed.[30, 31]

Data set [2] can be described thus: eLogD shake-flask method. The class given is physicochemical. From the text:
(§1) Human liver microsome stability, rat hepatocyte stability, aqueous solubility and eLogD are platform assays conducted by TCG Lifesciences and undertaken using previously described protocols.[10]

Data set [3] in a line: Human liver microsome stability. The class given is in vitro ADME. The note with it: human liver microsomes; read-out: HLM CLint.
Description: as §1

Data set [4] in a line: Rat hepatocyte stability. The class given is in vitro ADME. To be noted: rat hepatocytes; read-out: Rat Hep CLint.
Description: as §1

Data set [5] in a line: Aqueous solubility (pH 7.4). Format: physicochemical.
Description: as §1

For data set [6], the system named is P. falciparum Dd2 PfATP4^D425E strain. Nature of the data set: 'compound 49' resistant parasite viability assay (LDH), Dd2 D425E. Format: cell-based. To be noted: Plasmodium falciparum, DD2, 72 h, read-out: Dd2^D425E EC50 (SD). As for the experimental part:
(§2) These assays were performed according to a previously described protocol.[16] Briefly, P. falciparum Dd2 strains treated with compound were incubated for 72 h at 37 °C. After incubating for 72 h, plates were frozen at −80 °C and then thawed at room temperature for at least 2 h. LDH activity, a surrogate for parasite growth was measured by the addition of the Malstst reagent mix, followed by incubation for 30 min and absorbance read using a ClarioStar Microplate reader at 650 nm. Values were normalized to DMSO control as a percentage and EC50 and dose response curves generated using GraphPad Prism.

Data set [7] has as its system P. falciparum Dd2 strain with 2.8-fold amplification in PfATP4. Nature of the data set: 'compound 49' resistant parasite viability assay (LDH), Dd2 2.8 CNV. Format: cell-based. The note with it: Plasmodium falciparum, DD2, 72 h, read-out: Dd2^2.8 CNV EC50 (SD). As to the method:
as §2

For data set [8], the system named is P. falciparum Dd2 PfATP4^G358S strain. The experiment in a line: PfATP4 drug resistant parasite viability assay (LDH), Dd2 G358S. Format: cell-based. The note with it: for EC50: Plasmodium falciparum, DD2, 72 h, read-out: Dd2^G358S EC50 (SD). As for the experimental part:
as §2

The test system of data set [9] is P. falciparum 3D7 parasites. Nature of the data set: P. falciparum viability assay (SYBR green), 3D7. Format: cell-based. To be noted: Plasmodium falciparum, read-out: P. falciparum parental EC50 (SD) 3D7. As for the experimental part: (§3) These assays were performed as previously described.[16] […] Parasites were synchronised with 5 % (w/v) sorbitol (Sigma‐Aldrich) treatments for ring stages. […] Parasites were grown in 1 % haematocrit, at 1 % and 2 % parasitaemia for P. falciparum and P. knowlesi respectively. […] Parasitaemia was measured using a SYBR DNA staining assay on a fluorometer.[33] After the incubation period, supernatants were removed and well contents were resuspended in PBS.

Data set [10] concerns P. falciparum Dd2. The experiment in a line: P. falciparum viability assay (SYBR green), Dd2. Format: cell-based. The note with it: Plasmodium falciparum, DD2, 72 h, read-out: P. falciparum parental EC50 (SD) Dd2. As to the method: (§4) These assays were performed as previously described.[16] P. falciparum 3D7 parasites and resistant lines Dd2, W2mef, 7G8, and artemisinin‐resistant Cambodian isolate (Cam3.I (2539T)), and P. knowlesi YH1, were cultured in human O^+ erythrocytes (RBCs) (Australian Red Cross Blood Service), in RPMI‐HEPES culture medium (pH 7.4, 50 μg/mL hypoxanthine, 25 mM NaHCO3, 20 μg/mL gentamicin, 0.5 % Albumax II (GibcoBRL)) (Thermo Fisher Scientific) and maintained in an atmosphere of 1 % O2, 4 % CO2 and 95 % N2. Parasites were synchronised with 5 % (w/v) sorbitol (Sigma‐Aldrich) treatments for ring stages. Growth assays for measuring drug inhibition of in‐cycle, ring to schizont stage parasites have been described previously. Parasites were grown in 1 % haematocrit, at 1 % and 2 % parasitaemia for P. falciparum and P. knowlesi respectively. […] Parasitaemia was measured using a SYBR DNA staining assay on a fluorometer.[33] After the incubation period, supernatants were removed and well contents were resuspended in PBS.

The subject of data set [11] is P. knowlesi YH1 parasites. The experiment in a line: P. knowlesi viability assay (SYBR green). Format: cell-based. To be noted: Plasmodium knowlesi, 48 h, read-out: P. knowlesi EC50 (SD) YH1. As for the experimental part: as §3
Data set [12] deals with P. falciparum CAM3.1. Nature of the data set: Multidrug-resistant parasite viability assay (SYBR green), CAM3.1. The class given is cell-based. To be noted: Plasmodium falciparum, 72 h, read-out: multidrug resistant P. falciparum strains EC50 (SD) CAM3.1. As to the method: as §4
The subject of data set [13] is P. falciparum NF54 male gametes. Nature of the data set: Dual gamete formation assay, male. The class given is cell-based. To be noted: Plasmodium falciparum; NF54 stage V gametocytes, 48 h incubation; exflagellation 20 min after induction. As to the method: (§5) PfATP4 inhibitors are known to block the transmission of parasites from humans to mosquitoes by interfering with both gametocytes and gamete development.[29] We evaluated a subset of truncated analogues against male and female gametes using a previously described assay. In this assay, stage V gametocytes are treated with compounds and then xanthurenic acid is added and a drop in temperature is used to simulate the mosquito gut environment to induce gametogenesis. After 30 min of compound treatment, male gamete viability is determined by microscopy measuring exflagellation, and after 24 h of compound treatment, female viability is measured using a female gamete specific αPfs25 antibody.
(§6) The compounds were evaluated as previously described.[34] Briefly, mature P. falciparum NF54 stage V gametocytes were exposed to compounds for 48 h at 37 °C in 384 well plates in gametocyte culture medium (RPMI 1640 supplemented with 25 mM HEPES, 50 μg mL^−1 hypoxanthine, 4.8 g L^−1 NaHCO3, 2 mM L‐glutamine, 5 % pooled type AB serum, 0.5 % Albumax II (Gibco)) under a 1 % O2/ 3 % CO2/ 96 % N2 environment. Gametogenesis was then triggered by the addition of 10 μL ookinete medium (gametocyte culture medium supplemented with 100 μM xanthurenic acid and 0.27 μg mL^−1 Cy3‐labelled anti‐Pfs25 antibody) to each well at room temperature. Plates were then cooled on a metal block at 4 °C for four min to ensure even cooling and then stabilised for a further 4 min at 28 °C. At 20 min post‐induction, male gametogenesis was recorded in each well by automated brightfield microscopy using a x4 objective lens and 1.5x magnifier (x6 effective magnification). Afterward, plates were incubated in the dark at room temperature for 24 h and then female gametogenesis was recorded in each well by automated fluorescence microscopy (anti‐Pfs25‐positive cells). […] All data was evaluated in comparison to the positive and negative controls to calculate percentage inhibition of male and female gametocytes, and dose response analysis and EC50 calculation were performed using GraphPad Prism.

In data set [14] the test system is P. falciparum NF54 female gametes. Nature of the data set: Dual gamete formation assay, female. The class given is cell-based. The note with it: Plasmodium falciparum; NF54 stage V gametocytes, 48 h incubation; αPfs25 antibody 24 h after induction. As for the experimental part:
as §5, §6

[15] abbreviates: aqueous medium at pH 7.4, pH 7.4, aqueous buffer.

A word on the EC50: it is the concentration that produces a half-maximal response. The term solubility denotes the dissolved amount per volume that the medium holds. Low values mean little dissolved substance, high ones much dissolved substance. With `CN1C(=O)c2ccc(-n3cccn3)cc2NC1(C)C(=O)Nc1cncc(Cl)c1` (centres unmarked) [Compound 33, N‐(5‐Chloropyridin‐3‐yl)‐2,3‐dimethyl‐4‐oxo‐7‐(1H‐pyrazol‐1‐yl)‐1,2,3,4‐tetrahydroquinazoline‐2‐carboxamide], the half-maximal effective concentration (EC50) stood at 0.065 µM in [1]; 0.126 µM in data set [6]; 0.124 µM in [7]; 0.537 µM in [8]; 0.045 µM in data set [9] (3D7, 72 h); 0.046 µM in data set [10]. In addition, the EC50 in data set [11] was 0.101 µM; in data set [12], 0.06 µM; in [13] it was 0.46 µM; in data set [14], 1 µM. The eLogD in data set [2] is 3.2^[d]. Besides, the microsomal CLint in data set [3] was 37 µL/min/mg. For the same molecule, the hepatocyte CLint in data set [4] turned out to be 14 µL/min/1e6 cells. Further, in [5] (setting [15]), the solubility was 2.6 µM (≈ 1.03 µg/mL). Also, the “fold less potent against PfATP4^G358S strain relative to the Dd2 parental line” value in data set [8] (ratio of EC50s) is given as 7 fold.
`COc1cc(F)c2c(c1)NC(C)(C(=O)Nc1cncc(Cl)c1)N(C)C2=O` (centres unmarked) [Compound 36, N‐(5‐Chloropyridin‐3‐yl)‐5‐fluoro‐7‐methoxy‐2,3‐dimethyl‐4‐oxo‐1,2,3,4‐tetrahydroquinazoline‐2‐carboxamide]: the EC50 worked out at 0.021 µM in [1]; 0.043 µM in data set [6]; 0.056 µM in [7]; 0.041 µM in [8]; 0.01 µM in data set [9] (3D7, SYBR green, 72 h); 0.013 µM in data set [10]. The EC50 in [11] worked out at 0.033 µM; in [12], 0.014 µM; in [13], 0.11 µM; in [14] it was 0.21 µM. Moreover, in [2], the eLogD is 2.6^[d]. Moreover, in [3], the microsomal CLint is 34 µL/min/mg. In data set [4], the hepatocyte CLint came out at 8 µL/min/1e6 cells. In data set [5] (setting [15]), this molecule registered a solubility of 4 µM (≈ 1.52 µg/mL).
With `CN1C(=O)c2ccc(Cl)cc2NC1(C)C(=O)Nc1cncc(Cl)c1` (centres unmarked) [Compound 14, 7‐Chloro‐N‐(5‐chloro‐3‐pyridyl)‐2,3‐dimethyl‐4‐oxo‐1H‐quinazoline‐2‐carboxamide], the EC50 was found to be 0.033 µM in data set [1]; 0.055 µM in [6]; 0.061 µM in data set [7]; 0.061 µM in data set [8]; 0.016 µM in data set [9] (3D7, SYBR green, 72 h); 0.019 µM in [10]. Also, the EC50 in data set [11] worked out at 0.058 µM; in [12], 0.021 µM; in data set [13], 0.13 µM; in data set [14], 0.12 µM. The eLogD in [2] is 3.2^[d]. Besides, the microsomal CLint in [3] stood at 60 µL/min/mg. In data set [4], the hepatocyte CLint is 25 µL/min/1e6 cells. Besides, the solubility is 5.2 µM (≈ 1.9 µg/mL) in data set [5] (aqueous medium (pH 7.4; buffer not named), pH 7.4, aqueous buffer) and less than 5.2 µM in data set [5] (aqueous medium at pH 7.4 (buffer not named), pH 7.4, aqueous buffer).

(Values after PMC11648822, “Lactam Truncation Yields a Dihydroquinazolinone Scaffold with Potent Antimalarial Activity that Targets PfATP4” (Chemmedchem, 2024).)
